In PubChem BioAssay (NCI):
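Step 1: Grow cells in 96-well plates. Step 2: Expose to compound for 48 hours at 5 concentrations. Step 3: Interpolate endpoints linearly; if unreached, use highest concentration. GI50 = concentration required for 50% inhibition of growth. TGI marks complete inhibition of growth.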

Key:
Test in all cases: inhibition of tumour cell growth, NCI panel, 48 h
A549 NSCLC = test system: A549 NSCLC
MOLT-4 leukemia = test system: MOLT-4 leukemia
NCI-H522 lung = test system: NCI-H522 lung
HT29 colon = test system: HT29 colon
OVCAR-4 ovarian = test system: OVCAR-4 ovarian
OVCAR-8 ovarian = test system: OVCAR-8 ovarian
HOP-62 NSCLC = test system: HOP-62 NSCLC
MDA-MB-435 = test system: MDA-MB-435
MCF7 breast = test system: MCF7 breast
MDA-MB-231 breast = test system: MDA-MB-231 breast

Row | SMILES | TGI (A549 NSCLC) [µM] | TGI (MOLT-4 leukemia) [µM] | TGI (NCI-H522 lung) [µM] | TGI (HT29 colon) [µM] | TGI (OVCAR-4 ovarian) [µM] | TGI (OVCAR-8 ovarian) [µM] | TGI (HOP-62 NSCLC) [µM] | GI50 (A549 NSCLC) [µM] | GI50 (MDA-MB-435) [µM] | TGI (MDA-MB-435) [µM] | GI50 (MOLT-4 leukemia) [µM] | GI50 (NCI-H522 lung) [µM] | GI50 (HT29 colon) [µM] | GI50 (OVCAR-4 ovarian) [µM] | GI50 (OVCAR-8 ovarian) [µM] | GI50 (HOP-62 NSCLC) [µM] | GI50 (MCF7 breast) [µM] | TGI (MCF7 breast) [µM] | TGI (MDA-MB-231 breast) [µM] | GI50 (MDA-MB-231 breast) [µM]
1 | CC(C)NC(=O)CCN(C(=O)O)S(=O)(=O)c1ccc(NC(=O)c2ccccc2)cc1 | > 71.2 | > 57.9 | > 100 | > 100 | > 100 | > 94.7 | > 100 | – | – | – | – | – | – | – | – | – | – | – | – | –
2 | COc1cc(/C=C/C(=O)N2CCN(C(=O)c3cc(OC)c(OC)c(OC)c3)CC2)ccc1OCCCOc1cc2c(cc1OC)C(=O)N1CCC[C@H]1C=N2 | 9.26 | 1.59 | 3.25 | 12.8 | 27.5 | – | 0.933 | 0.953 | 0.178 | 0.343 | 0.218 | 0.213 | 0.34 | 1.53 | 0.345 | 0.326 | 0.109 | 0.636 | – | –
3 | C=C(C(=C)P(=S)(c1ccccc1)c1ccccc1)P(=S)(c1ccccc1)c1ccccc1 | > 100 | > 100 | > 100 | > 100 | > 100 | > 100 | > 100 | – | – | – | – | – | – | – | – | – | – | – | – | –
4 | CC(C)(C)CC(N)=O | > 100 | – | > 100 | > 100 | > 100 | > 100 | > 100 | – | – | > 100 | – | – | – | – | – | – | – | > 100 | > 100 | –
5 | OCCN1CCN2C=C(C3CCCC4N(CCO)CCN34)CCC21 (centres undefined) | > 100 | 53.6 | > 70 | > 100 | > 100 | > 100 | > 100 | – | – | – | – | – | – | – | – | – | – | – | – | –
6 | Cn1c(/C=C/[N+](=O)[O-])cc2ccccc21 | 7.83 | 58 | 7.43 | 4.02 | 92.1 | 31.7 | 27.6 | 2.68 | 1.69 | 4.34 | 5.36 | 2.22 | 1.68 | 10.3 | 3.17 | 8.39 | – | – | 47.9 | 5.49
7 | CN1CCN(C)C12C=CC=CC21CC1 | > 100 | > 100 | > 100 | > 100 | > 100 | > 100 | > 100 | – | – | – | – | – | – | – | – | – | – | – | – | –
8 | COC(=O)C1=C(C(=O)OC)C2(C)Nc3ccccc3C2=C(c2ccccc2)C1 (centres undefined) | 46.7 | 29.6 | 35.9 | 70.6 | 50.1 | 61.7 | 50.1 | – | – | – | – | – | – | – | – | – | – | – | – | –
9 | CC(=O)Nc1ccc(COC(O)CN2CCCCC2)cc1[N+](=O)[O-] (centres undefined) | > 100 | > 100 | > 100 | > 100 | > 100 | > 100 | – | – | – | > 100 | – | – | – | – | – | – | – | > 100 | > 100 | –
10 | CCCCCCCCCCCCCCCCC(=O)O.CCCCCCCCCCCCCCCCCC(=O)O.CCCCCCCCCCCCCCCCCC(=O)O.CCCCCCCCCCCCCCCCCC(=O)O.CCCCCCCCCCCCCCCCCC(=O)O.CO[CH-]OC12COC1CC(O)C1(C)C(O)C(OC(C)O)C3=C(C)C(OC(=O)C(O)C([NH-])c4ccccc4)CC(O)(C(OC(=O)c4ccccc4)C21)C3(C)C.[Cu+].[Zn].[Zn].[Zn].[Zn].[Zn] (centres undefined) | > 22.3 | > 18.5 | 6.07 | > 25 | 11.7 | > 25 | > 20.4 | 0.00818 | – | – | 0.0104 | 0.0103 | < 0.0025 | 2.35 | 0.0102 | 0.0131 | 0.00262 | 3.83 | 4.48 | 0.0135
11 | c1ccc2cc(C[n+]3ccn(CCCCCCCCCCn4cc[n+](Cc5ccc6ccccc6c5)c4)c3)ccc2c1 | – | 3 | 1.94 | 4.74 | 9.88 | 13.1 | 7.24 | – | 0.819 | 5.43 | 1.36 | 0.436 | 0.715 | 0.988 | 2.18 | 1.09 | 0.554 | 2.3 | 5.3 | 1.33
12 | N/N=c1\c2ccccc2c2cc3c(cc12)/c(=N/N)c1ccccc13 | > 100 | > 100 | > 100 | > 100 | > 100 | > 100 | > 100 | – | – | – | – | – | – | – | – | – | – | – | – | –
13 | Clc1ccc(-c2c(C3=NCCCN3)nnn2-c2ccccc2)cc1 | > 100 | > 100 | > 100 | > 100 | > 100 | > 100 | > 100 | – | – | – | – | – | – | – | – | – | – | – | – | –
14 | O=C(/C(=C\c1ccc(Cl)cc1)c1ccccc1)c1ccccc1 | – | > 100 | > 100 | > 100 | > 100 | > 100 | > 100 | – | – | – | – | – | – | – | – | – | – | – | – | –
15 | CC1(c2ccccc2)CC(c2cccc([N+](=O)[O-])c2)=NO1 (centres undefined) | > 100 | > 100 | > 100 | > 100 | > 100 | > 100 | > 100 | – | – | – | – | – | – | – | – | – | – | – | – | –
16 | CC(=O)c1cc(C(=O)c2ccc3c(c2)Sc2ccccc2N3)c2cc(C)ccn12 | > 100 | > 100 | > 100 | > 100 | > 100 | > 100 | > 100 | 0.0648 | – | – | 0.329 | 0.0412 | 0.0627 | 1.29 | 0.451 | 0.146 | 0.0345 | > 100 | > 100 | 0.348
17 | COc1cc(-c2cc(-c3cc(OC)c(OC)c(OC)c3)nc3nc(N)[nH]c(=O)c23)ccc1Oc1ccnc2cc(Cl)ccc12 | > 100 | > 100 | 15.5 | 25.4 | > 100 | 79.5 | 16.7 | 2.84 | – | – | 2.78 | 2.13 | 10.5 | 4.34 | 3.17 | 2.35 | 0.762 | > 100 | 24.7 | 2.59
18 | CC#CC1C2CCCC1(CSc1ccccc1)NC(=O)O2 (centres undefined) | > 100 | > 100 | > 100 | > 100 | > 100 | > 100 | > 100 | – | – | – | – | – | – | – | – | – | – | – | – | –
